Reference: article PMC12195967, “Cobalt(II) Complexes of 4′–Nitro–Fenamic Acid: Characterization and Biological Evaluation” (Molecules, 2025)

What was measured:
[1] = test system: CT DNA; experiment: Interaction with CT DNA by UV-vis spectroscopy; assay type: binding, calf; conditions: for percentage of the observed hyper-/hypochromism (ΔA/A0, %) / blue-/red-shift in λmax (Δλ, nm): upon addition of CT DNA; for DNA-binding constant Kb: Wolfe–Shimer equation
Method: UV-vis spectroscopy was employed to determine the interaction mode of the compounds (4′–NO2–fenH and its complexes 1–4) with DNA and calculate the DNA-binding constant (Kb). For this reason, the UV-vis spectra of the compounds (2 × 10^−5–10^−4 Μ) were recorded in the presence of incremental additions of CT DNA solution (Figure S4), and the changes (in absorbance and wavelength) of the initial bands were monitored. […] However, a definite conclusion cannot be reached from such spectroscopic data, but the interaction mode could be further corroborated by viscosity measurements.
The Kb values of the compounds were calculated with the Wolfe–Shimer equation (Equation (S1)) and the corresponding plots of [DNA]/(εA–εF) vs. [DNA] (Figure S5).
(§1) S3 Binding studies with CT DNA
(§2) In order to study the interaction of the compounds with DNA, the compound was initially dissolved in DMSO (1 mM). Mixing of such solutions with the aqueous buffer solutions of DNA used in the studies never exceeded 5% DMSO (v/v) in the final solution, which was needed due to low aqueous solubility of most compounds. In all experiments, the effect of DMSO on the data has been taken into consideration and the appropriate corrections have been performed. The interaction of the compound with CT DNA was monitored by UV−vis spectroscopy, and viscosity measurements, and via competitive studies with EB by fluorescence emission spectroscopy.
S3.1 Binding study with CT DNA by UV−vis spectroscopy
The interaction of the compound with CT DNA has been studied by UV−vis spectroscopy in order to investigate the possible binding mode to CT DNA and to calculate the DNA−binding constant (Kb). of the compounds Kb (in M−1) was determined with the Wolfe−Shimer equation (equation S1) and the plots [DNA]/(εA−εf) versus [DNA] using the UV−vis spectra of the compound (25–100 μM) recorded for a constant concentration with increasing amounts of CT DNA for diverse [compound]/[DNA] mixing ratios (= r).
According to the Wolfe−Shimer equation:
[DNA] = [DNA] + 1 (equation S1)
(εA−εf) (εb−εf) Kb(εb−εf) where [DNA] is the concentration of DNA in base pairs, εA = Aobsd/[compound], εf = the extinction coefficient for the free compound and εb = the extinction coefficient for the compound in the fully bound form. Kb is given by the ratio of slope to the y intercept in plots [DNA]/(εA−εf) versus [DNA]. […]

[2] = test system: CT DNA; experiment: DNA-melting temperature of CT DNA in presence of the compounds; assay type: binding, calf; conditions: compound–DNA ratio 1:50; for Tm of CT DNA in the presence of the compound: CT DNA alone Tm 80.7 °C; for ΔTm of CT DNA: versus CT DNA alone 80.7 °C
Description: In order to further clarify the interaction mode of the compounds with CT DNA, the effect of the temperature of this interaction was also investigated. Within this context, the thermal denaturation of DNA in the presence of the compounds was studied with UV-vis spectroscopy in order to calculate (via a sigmoidal fitting of the experimental data) the DNA-melting temperature (Tm), i.e., the temperature at which half of double-stranded DNA is denatured (“melted”) to single-stranded DNA.
as §1
as §2, with “spectroscopy. […]” for “spectroscopy.”
S3.2 Determination of the DNA–melting temperature (Tm)
The UV–vis spectra of a CT DNA solution (1.25×10–4 M) in the presence of the compounds (2.5×10–6 M) were recorded upon increasing the temperature. The obtained data are presented as normalized absorbance at 260 nm (Normalized A(260 nm)) versus temperature (T (ºC)). A sigmoidal fitting of the data was applied for each compound and the melting temperature Tm (temperature with normalized absorbance of 0.5) was determined. […]

[3] = DPPH radical scavenging; conditions: compounds 0.1 mM, DPPH 0.1 mM in ethanol
Method: Antioxidant compounds able to neutralize DPPH radicals are increasingly recognized due to their capability of combating cancer, slowing down the aging process and regulating inflammation. As a result, they could potentially offer protection against rheumatoid arthritis and inflammation. […] In this experiment, NDGA and BHT were used as reference compounds and measurements took place at 30 min and 60 min. […] Such low scavenging activity of DPPH radicals is rather common for metal–NSAID complexes.
S1 Antioxidant activity assay
The antioxidant activity of the compound was evaluated via the ability to scavenge in vitro free radicals such as DPPH and ABTS and to reduce H2O2. All the experiments were carried out at least in triplicate and the standard deviation of absorbance was less than 10% […]
S1.1 Determination of the reducing activity of the radical DPPH
To an ethanolic solution of DPPH (0.1 mM) an equal volume solution of the compounds (0.1 mM) in ethanol was added. Absolute ethanol was also used as control solution. The absorbance at 517 nm was recorded at room temperature after 30 and 60 min in order to examine the possible existence of a potential time−dependence of the DPPH radical scavenging activity.[1] The DPPH−scavenging activity of the compounds was expressed as the percentage reduction of the absorbance values of the initial DPPH solution (DPPH%). NDGA and BHT were used as reference compounds. […]

[4] = UV band at λmax 391–421 nm, + hyperchromism, − hypochromism
[5] = UV band at λmax 391–421 nm, + red-shift, − blue-shift

Row | Compound | percentage of the observed hyper-/hypochromism (ΔA/A0, %) [1, 4] | blue-/red-shift in λmax (Δλ, nm) [1, 5] | DNA-binding constant Kb ([1]; listed as 4′–NO2–fenamic acid) | Tm of CT DNA in the presence of the compound [2] | %DPPH-scavenging ability (DPPH%), 30 min [3] | %DPPH-scavenging ability (DPPH%), 60 min [3] | blue-/red-shift in λmax (Δλ, nm) ([1]; UV band at λmax 321 nm) | percentage of the observed hyper-/hypochromism (ΔA/A0, %) ([1]; UV band at λmax 321 nm) | ΔTm of CT DNA [2] | DNA-binding constant Kb [1]
1 | O=C(O)c1ccccc1Nc1ccc([N+](=O)[O-])cc1 [4′–NO2–fenH, 4′–nitrofenamic acid] | −12% | +20 nm | 1.62e+06 M⁻¹ | 83.7 °C | Not active | Not active | – | – | – | –
2 | CO.CO.CO.CO.O=C([O-])c1ccccc1Nc1ccc([N+](=O)[O-])cc1.O=C([O-])c1ccccc1Nc1ccc([N+](=O)[O-])cc1.[Co+2] [Complex 1, [Co(4′–NO2–fen)2(MeOH)4]] | −10% | 0 nm | – | 83.7 °C | Not active | Not active | – | – | – | –
3 | O=C([O-])c1ccccc1Nc1ccc([N+](=O)[O-])cc1.O=C([O-])c1ccccc1Nc1ccc([N+](=O)[O-])cc1.[Co+2].c1ccc(Nc2ccccn2)nc1 [Complex 2, [Co(4′–NO2–fen)2(bipyam)]] | −10% | 0 nm | – | 74.5 °C | Not active | Not active | −0.5 nm | +4% | negative | –
4 | O=C([O-])c1ccccc1Nc1ccc([N+](=O)[O-])cc1.O=C([O-])c1ccccc1Nc1ccc([N+](=O)[O-])cc1.[Co+2].c1cnc2c(c1)ccc1cccnc12 [Complex 3, [Co(4′–NO2–fen)2(phen)]] | −2.5% | +0.5 nm | – | 84.7 °C | Not active | Not active | – | – | – | –
5 | C[O-].C[O-].Cc1ccc2ccc3ccc(C)nc3c2n1.Cc1ccc2ccc3ccc(C)nc3c2n1.O=C([O-])c1ccccc1Nc1ccc([N+](=O)[O-])cc1.O=C([O-])c1ccccc1Nc1ccc([N+](=O)[O-])cc1.[Co+2].[Co+2] [Complex 4, [Co2(4′–NO2–fen)2(μ–CH3O)2(neoc)2]] | −3% | −4.5 nm | – | 73.9 °C | Not active | Not active | – | – | negative | 2.06e+06 M⁻¹
